Source: PMC4457528, “Identification of Novel Small Molecule Inhibitors of Oncogenic RET Kinase” (PLoS ONE, 2015)

Experiments:
Experiment in all cases: KinomeScan kinase panel, single concentration 10 µM
Type in all cases: binding
KinomeScan kinase panel [1] = molecular target: T1, KinomeScan kinase panel (Homo sapiens, UniProt O95835); conditions: LATS1, 10 µM; read-out: score (%)
T1 construct: purchased DiscoveRx (KinomeScan)
T1 sequence (O95835 1-1130): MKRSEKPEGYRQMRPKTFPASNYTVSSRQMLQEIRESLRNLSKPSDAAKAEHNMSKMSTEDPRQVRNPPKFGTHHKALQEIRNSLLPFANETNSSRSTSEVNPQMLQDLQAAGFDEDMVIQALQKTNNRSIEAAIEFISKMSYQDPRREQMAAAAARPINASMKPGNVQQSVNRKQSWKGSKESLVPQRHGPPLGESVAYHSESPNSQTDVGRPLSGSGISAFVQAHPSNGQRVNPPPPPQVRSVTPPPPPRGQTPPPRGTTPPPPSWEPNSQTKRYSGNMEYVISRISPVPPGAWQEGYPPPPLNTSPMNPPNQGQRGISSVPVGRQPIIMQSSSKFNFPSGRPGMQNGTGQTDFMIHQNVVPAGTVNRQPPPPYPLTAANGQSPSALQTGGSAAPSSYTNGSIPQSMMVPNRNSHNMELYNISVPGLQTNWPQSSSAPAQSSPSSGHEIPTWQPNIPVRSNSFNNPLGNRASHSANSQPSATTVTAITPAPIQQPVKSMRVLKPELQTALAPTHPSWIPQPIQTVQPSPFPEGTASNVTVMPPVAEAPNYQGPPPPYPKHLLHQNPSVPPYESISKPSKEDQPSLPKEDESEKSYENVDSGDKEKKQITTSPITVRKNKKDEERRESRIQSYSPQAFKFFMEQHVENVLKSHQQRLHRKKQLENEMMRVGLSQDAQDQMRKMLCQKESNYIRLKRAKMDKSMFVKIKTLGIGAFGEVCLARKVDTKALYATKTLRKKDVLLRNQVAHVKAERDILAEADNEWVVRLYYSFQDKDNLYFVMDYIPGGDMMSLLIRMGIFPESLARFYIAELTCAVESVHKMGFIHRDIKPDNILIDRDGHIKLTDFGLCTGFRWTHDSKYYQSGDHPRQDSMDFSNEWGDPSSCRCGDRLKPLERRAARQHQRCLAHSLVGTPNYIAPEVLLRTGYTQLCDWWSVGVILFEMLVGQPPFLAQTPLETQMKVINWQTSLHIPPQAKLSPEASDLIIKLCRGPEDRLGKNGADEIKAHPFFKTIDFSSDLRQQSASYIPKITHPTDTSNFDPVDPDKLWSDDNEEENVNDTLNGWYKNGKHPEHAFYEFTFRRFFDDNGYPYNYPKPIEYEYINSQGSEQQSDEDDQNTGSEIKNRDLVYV

KinomeScan kinase panel [2] = molecular target: T2, KinomeScan kinase panel (Homo sapiens, UniProt P22694); conditions: PKAC-beta, 10 µM; read-out: score (%)
T2 construct: purchased DiscoveRx (KinomeScan)

KinomeScan kinase panel [3] = molecular target: T3, KinomeScan kinase panel (Homo sapiens, UniProt P30291); conditions: kinase WEE1; 10 µM; read-out: score (%)
T3 construct: purchased DiscoveRx (KinomeScan)

KinomeScan kinase panel [4] = molecular target: T4, KinomeScan kinase panel (Homo sapiens, UniProt Q09013); conditions: DMPK, 10 µM; read-out: score (%)
T4 construct: purchased DiscoveRx (KinomeScan)
T4 sequence (Q09013 1-629): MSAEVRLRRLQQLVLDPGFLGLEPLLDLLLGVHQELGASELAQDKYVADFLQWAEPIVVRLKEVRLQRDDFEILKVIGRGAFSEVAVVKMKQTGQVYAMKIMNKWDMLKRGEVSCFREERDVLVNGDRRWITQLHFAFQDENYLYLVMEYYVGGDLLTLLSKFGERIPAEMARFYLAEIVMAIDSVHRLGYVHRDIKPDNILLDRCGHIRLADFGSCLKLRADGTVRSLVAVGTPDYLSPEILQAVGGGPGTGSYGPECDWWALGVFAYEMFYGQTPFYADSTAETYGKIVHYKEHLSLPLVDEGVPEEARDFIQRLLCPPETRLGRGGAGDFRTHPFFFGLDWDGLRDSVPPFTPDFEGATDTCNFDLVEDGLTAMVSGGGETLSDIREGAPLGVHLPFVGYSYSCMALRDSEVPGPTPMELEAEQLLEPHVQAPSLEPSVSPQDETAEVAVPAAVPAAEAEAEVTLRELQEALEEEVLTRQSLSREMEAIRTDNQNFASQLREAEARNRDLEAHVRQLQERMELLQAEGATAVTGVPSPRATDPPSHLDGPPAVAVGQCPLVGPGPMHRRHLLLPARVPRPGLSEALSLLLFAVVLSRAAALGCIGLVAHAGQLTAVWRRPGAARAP

KinomeScan kinase panel [5] = molecular target: T5, KinomeScan kinase panel (Homo sapiens, UniProt Q6DT37); conditions: DMPK2, 10 µM; read-out: score (%)
T5 construct: purchased DiscoveRx (KinomeScan)

KinomeScan kinase panel [6] = molecular target: T6, KinomeScan kinase panel (Homo sapiens, UniProt Q8IU85); conditions: CAMK1D, 10 µM; read-out: score (%)
T6 construct: purchased DiscoveRx (KinomeScan)

KinomeScan kinase panel [7] = molecular target: T7, KinomeScan kinase panel (Homo sapiens, UniProt Q9NQU5); conditions: PAK6, 10 µM; read-out: score (%)
T7 construct: purchased DiscoveRx (KinomeScan)

KinomeScan kinase panel [8] = molecular target: T8, KinomeScan kinase panel (Homo sapiens, UniProt Q9UQ88); conditions: CDC2L2, 10 µM; read-out: score (%)
T8 construct: purchased DiscoveRx (KinomeScan)
T8 sequence (Q9UQ88 1-783): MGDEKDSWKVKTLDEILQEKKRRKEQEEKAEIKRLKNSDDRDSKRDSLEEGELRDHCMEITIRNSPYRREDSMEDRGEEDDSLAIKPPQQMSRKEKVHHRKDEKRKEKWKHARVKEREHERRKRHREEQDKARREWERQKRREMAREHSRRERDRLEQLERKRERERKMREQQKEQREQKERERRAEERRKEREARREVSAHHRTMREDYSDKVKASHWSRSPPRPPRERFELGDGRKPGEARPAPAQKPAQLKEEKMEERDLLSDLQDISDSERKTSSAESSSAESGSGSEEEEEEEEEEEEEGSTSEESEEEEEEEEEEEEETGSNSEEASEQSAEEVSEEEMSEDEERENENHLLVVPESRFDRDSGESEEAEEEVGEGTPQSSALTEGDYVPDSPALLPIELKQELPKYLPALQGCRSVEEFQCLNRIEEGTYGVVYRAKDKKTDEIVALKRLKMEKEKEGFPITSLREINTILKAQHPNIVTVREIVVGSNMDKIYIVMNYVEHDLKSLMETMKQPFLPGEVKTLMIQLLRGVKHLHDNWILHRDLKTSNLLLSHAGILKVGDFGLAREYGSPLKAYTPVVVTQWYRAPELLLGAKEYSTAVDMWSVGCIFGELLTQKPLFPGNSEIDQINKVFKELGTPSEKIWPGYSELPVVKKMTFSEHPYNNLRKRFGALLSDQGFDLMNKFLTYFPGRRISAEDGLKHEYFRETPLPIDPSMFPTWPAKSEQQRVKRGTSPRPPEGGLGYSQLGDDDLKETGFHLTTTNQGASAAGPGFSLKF

T5 sequence (Q6DT37 whole entry): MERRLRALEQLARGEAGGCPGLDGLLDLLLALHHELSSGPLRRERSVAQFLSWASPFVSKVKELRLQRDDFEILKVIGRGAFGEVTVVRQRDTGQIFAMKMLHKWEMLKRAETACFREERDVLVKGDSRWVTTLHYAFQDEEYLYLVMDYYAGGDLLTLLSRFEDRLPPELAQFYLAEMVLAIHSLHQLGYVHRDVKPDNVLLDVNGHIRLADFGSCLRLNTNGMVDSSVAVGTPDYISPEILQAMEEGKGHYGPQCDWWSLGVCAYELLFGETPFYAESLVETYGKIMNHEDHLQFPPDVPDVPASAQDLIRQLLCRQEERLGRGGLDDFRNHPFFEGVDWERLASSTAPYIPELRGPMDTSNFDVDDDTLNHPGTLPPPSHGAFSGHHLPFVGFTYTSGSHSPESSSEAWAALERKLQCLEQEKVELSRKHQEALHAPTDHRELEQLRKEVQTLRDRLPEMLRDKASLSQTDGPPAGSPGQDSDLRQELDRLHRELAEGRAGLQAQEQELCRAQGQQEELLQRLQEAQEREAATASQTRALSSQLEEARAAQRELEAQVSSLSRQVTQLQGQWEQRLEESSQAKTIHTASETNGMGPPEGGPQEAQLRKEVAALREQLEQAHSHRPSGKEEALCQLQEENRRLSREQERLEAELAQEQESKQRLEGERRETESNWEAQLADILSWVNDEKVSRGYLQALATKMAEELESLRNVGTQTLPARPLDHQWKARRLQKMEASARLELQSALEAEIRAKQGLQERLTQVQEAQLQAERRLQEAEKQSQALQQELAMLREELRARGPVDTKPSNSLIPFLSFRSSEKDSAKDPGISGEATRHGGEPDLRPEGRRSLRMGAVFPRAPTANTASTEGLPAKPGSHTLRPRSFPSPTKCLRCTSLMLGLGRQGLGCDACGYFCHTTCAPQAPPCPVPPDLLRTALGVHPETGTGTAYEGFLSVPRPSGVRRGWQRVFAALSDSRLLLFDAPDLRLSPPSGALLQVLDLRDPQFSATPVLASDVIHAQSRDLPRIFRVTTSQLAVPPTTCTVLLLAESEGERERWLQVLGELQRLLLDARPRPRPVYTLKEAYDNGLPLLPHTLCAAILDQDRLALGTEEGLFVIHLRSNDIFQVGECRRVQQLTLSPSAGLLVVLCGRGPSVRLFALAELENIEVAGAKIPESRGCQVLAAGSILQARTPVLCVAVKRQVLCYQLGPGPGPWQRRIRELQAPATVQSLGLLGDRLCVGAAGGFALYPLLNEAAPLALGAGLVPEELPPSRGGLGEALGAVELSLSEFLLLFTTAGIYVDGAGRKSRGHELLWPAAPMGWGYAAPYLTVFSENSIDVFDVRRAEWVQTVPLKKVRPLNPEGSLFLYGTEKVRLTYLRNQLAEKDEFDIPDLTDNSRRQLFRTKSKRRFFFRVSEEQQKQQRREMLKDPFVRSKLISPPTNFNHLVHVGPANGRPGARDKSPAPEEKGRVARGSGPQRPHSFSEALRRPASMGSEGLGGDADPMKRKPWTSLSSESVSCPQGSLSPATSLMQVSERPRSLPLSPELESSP
T6 sequence (Q8IU85 whole entry): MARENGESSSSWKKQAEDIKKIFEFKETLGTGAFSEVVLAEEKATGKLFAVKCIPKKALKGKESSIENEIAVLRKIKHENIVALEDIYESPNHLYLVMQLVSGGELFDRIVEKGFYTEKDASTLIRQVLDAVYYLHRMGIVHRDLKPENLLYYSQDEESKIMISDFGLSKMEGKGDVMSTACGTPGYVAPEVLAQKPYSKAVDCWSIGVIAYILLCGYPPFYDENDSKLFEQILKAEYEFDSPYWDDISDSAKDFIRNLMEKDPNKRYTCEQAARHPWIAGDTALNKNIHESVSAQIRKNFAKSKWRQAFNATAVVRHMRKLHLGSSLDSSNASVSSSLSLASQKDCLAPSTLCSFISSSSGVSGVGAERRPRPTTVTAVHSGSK
T7 sequence (Q9NQU5 whole entry): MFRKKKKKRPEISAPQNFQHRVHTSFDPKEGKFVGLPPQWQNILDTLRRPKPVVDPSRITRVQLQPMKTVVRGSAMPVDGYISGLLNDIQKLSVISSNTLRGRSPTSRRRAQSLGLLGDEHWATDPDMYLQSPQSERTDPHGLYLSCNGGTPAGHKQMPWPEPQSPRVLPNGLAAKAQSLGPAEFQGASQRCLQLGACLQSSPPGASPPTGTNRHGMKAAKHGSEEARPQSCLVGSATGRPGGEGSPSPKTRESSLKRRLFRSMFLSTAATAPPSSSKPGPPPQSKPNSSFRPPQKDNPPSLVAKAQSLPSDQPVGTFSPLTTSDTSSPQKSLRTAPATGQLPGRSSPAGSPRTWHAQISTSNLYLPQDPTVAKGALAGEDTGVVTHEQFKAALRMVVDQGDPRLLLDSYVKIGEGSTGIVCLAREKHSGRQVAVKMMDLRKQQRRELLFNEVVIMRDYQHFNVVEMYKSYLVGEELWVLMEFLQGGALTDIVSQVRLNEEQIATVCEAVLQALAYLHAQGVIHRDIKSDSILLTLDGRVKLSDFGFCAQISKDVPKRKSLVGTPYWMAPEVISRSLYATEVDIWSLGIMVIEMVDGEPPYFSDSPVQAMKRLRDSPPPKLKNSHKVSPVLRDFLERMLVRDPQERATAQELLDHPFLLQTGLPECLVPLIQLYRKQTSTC
T3 sequence (P30291 whole entry): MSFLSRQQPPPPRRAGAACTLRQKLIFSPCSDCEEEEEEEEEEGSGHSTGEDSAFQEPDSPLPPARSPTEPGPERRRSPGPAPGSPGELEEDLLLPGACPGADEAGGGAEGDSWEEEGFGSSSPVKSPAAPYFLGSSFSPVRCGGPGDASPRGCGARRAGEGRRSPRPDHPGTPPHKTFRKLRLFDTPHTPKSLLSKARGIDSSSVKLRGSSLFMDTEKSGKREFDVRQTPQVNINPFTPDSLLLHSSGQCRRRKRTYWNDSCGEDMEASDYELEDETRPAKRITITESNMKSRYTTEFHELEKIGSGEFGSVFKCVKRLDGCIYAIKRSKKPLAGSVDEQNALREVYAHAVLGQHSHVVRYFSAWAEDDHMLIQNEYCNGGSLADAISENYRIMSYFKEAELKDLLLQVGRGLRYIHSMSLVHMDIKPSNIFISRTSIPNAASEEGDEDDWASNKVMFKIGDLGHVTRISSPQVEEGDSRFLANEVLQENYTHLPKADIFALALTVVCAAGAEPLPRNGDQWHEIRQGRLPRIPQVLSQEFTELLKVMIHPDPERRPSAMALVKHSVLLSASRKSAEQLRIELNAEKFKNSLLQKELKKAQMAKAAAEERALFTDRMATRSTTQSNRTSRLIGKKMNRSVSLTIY

SMILES	remaining binding at 10 µM (KinomeScan kinase panel [1]) [%]	remaining binding at 10 µM (KinomeScan kinase panel [2]) [%]	remaining binding at 10 µM (KinomeScan kinase panel [3]) [%]	remaining binding at 10 µM (KinomeScan kinase panel [4]) [%]	remaining binding at 10 µM (KinomeScan kinase panel [5]) [%]	remaining binding at 10 µM (KinomeScan kinase panel [6]) [%]	remaining binding at 10 µM (KinomeScan kinase panel [7]) [%]	remaining binding at 10 µM (KinomeScan kinase panel [8]) [%]
CCN1CCN(Cc2ccc(NC(=O)c3ccc(C)c(C#Cc4cccnc4)c3)cc2C(F)(F)F)CC1 [XMD15-44]	20	4.1	100	> 30	> 30	> 30	100	1.6
CCN1CCN(Cc2ccc(NC(=O)c3ccc(C)c(/C=C/c4cnc5[nH]ccc5c4Cl)c3)cc2C(F)(F)F)CC1 [HG-6-63-01, (E)-3-(2-(4-chloro-1H-pyrrolo[2,3-b]pyridin-5-yl)vinyl)-N-(4-((4-ethylpiperazin-1-yl)methyl)-3-(trifluoromethyl)phenyl)-4-methylbenzamide]	> 30	> 30	> 30	> 30	14	> 30	> 30	17
CCN1CCN(Cc2ccc(NC(=O)c3ccc(C)c(NC(=O)c4cncc(-c5cccs5)c4)c3)cc2C(F)(F)F)CC1 [ALW-II-41-27]	> 30	8	> 30	> 30	> 30	> 30	> 30	1.8
